Laboratory results published in patent US20050020556A1, “Method for treating diseases using HSP90-inhibiting agents in combination with platinum coordination complexes” (Kosan Biosciences, Inc., priority 2003, published 2005).
Like-named read-outs stand apart in the source and are kept apart here.

Legend:
ErbB2 protein [1] = assay: ErbB2 protein expression in SKBr3 cells; assay type: cell-based, human
ErbB2 protein [2] = assay: ErbB2 protein expression in glioma cells; assay type: cell-based
[3] = background statement; cited from earlier work
[4] = clinical trials, cited from earlier work
[5] = test system: DLD-1 cells (human colorectal cancer cells); assay: Cell viability (MTS) drug combination assay, combination index, DLD-1 cells; assay type: cell-based; conditions: combination with 17-AAG, CI<1 synergism
Protocol: Human colon adenocarcinoma cell line, DLD-1, and human breast adenocarcinoma cell line, SKBr-3, were obtained from American Type Culture Collection (manassas, VA). […] Other cytotoxic agents were purchased commercially from suppliers such as Sigma Chemical Co. (St. Louis, Mo.) and Sequoia Research Products (Oxford, UK). Cells were seeded in duplicate in 96-well microtiter plates at a density of 5,000 cells per well and allowed to attach overnight. […] Cell viability was determined using the MTS assay (Promega). […] Based on the IC50 values of each individual drug, combined drug treatment was designed at constant ratios of two drugs, i.e., equivalent to the ratio of their IC50. Two treatment schedules were used: In one schedule, the cells were exposed to 24 hours of 17-AAG or 17-DMAG. The drug was then added to the cells and incubated for 48 hours. […] Cell viability was determined by the MTS assay. Synergism, additivity or antagonism was determined by median effect analysis using the combination index (CI) calculated using Calcusyn (Biosoft, Cambridge, UK). […] The quantities [Dx]1 and [Dx]2 represent the concentrations of the first and second drug, respectively, that when used alone provide a response of x % in the assay. […] The “enhancing” effect of two drugs can also be determined.

[6] = test system: SKBr cells (human breast cancer cells); assay: Cell viability (MTS) drug combination assay, combination index, SKBr-3 cells; assay type: cell-based; conditions: combination with 17-AAG, CI<1 synergism
Protocol: Human colon adenocarcinoma cell line, DLD-1, and human breast adenocarcinoma cell line, SKBr-3, were obtained from American Type Culture Collection (manassas, VA). […] Other cytotoxic agents were purchased commercially from suppliers such as Sigma Chemical Co. (St. Louis, Mo.) and Sequoia Research Products (Oxford, UK). Cells were seeded in duplicate in 96-well microtiter plates at a density of 5,000 cells per well and allowed to attach overnight. […] Cell viability was determined using the MTS assay (Promega). […] Based on the IC50 values of each individual drug, combined drug treatment was designed at constant ratios of two drugs, i.e., equivalent to the ratio of their IC50. […] The drug was then added to the cells and incubated for 48 hours. […] Cell viability was determined by the MTS assay. Synergism, additivity or antagonism was determined by median effect analysis using the combination index (CI) calculated using Calcusyn (Biosoft, Cambridge, UK). […] The quantities [Dx]1 and [Dx]2 represent the concentrations of the first and second drug, respectively, that when used alone provide a response of x % in the assay. […] The “enhancing” effect of two drugs can also be determined.

[7] = 17-AAG Post-Administration (platinum complex 24 h, then 17-AAG 48 h)

17-(allylamino)-17-desmethoxygeldanamycin [17-AAG]
expression of ErbB2 protein (ErbB2 protein [1]): reduced the expression of ErbB2 protein | expression of ErbB2 protein (ErbB2 protein [2]): reduced the expression of ErbB2 protein | hepatotoxicity [3]: reduced hepatotoxicity | MTD ([4]; daily x 5 schedule): about 40 mg/m^2 | MTD ([4]; once-weekly regimen): about 308 mg/m^2 | MTD ([4]; twice-weekly regimen): about 220 mg/m^2

CO[C@H]1/C=C\C=C(/C)C(=O)NC2=CC(=O)C(NCCN(C)C)=C(C[C@@H](C)C[C@H](OC)[C@H](O)[C@@H](C)/C=C(\C)[C@@H]1OC(N)=O)C2=O [17-DMAG, 17-(2-dimethylaminoethyl)amino-17-desmethoxygeldanamycin]
expression of ErbB2 protein (ErbB2 protein [1]): reduced the expression of ErbB2 protein | expression of ErbB2 protein (ErbB2 protein [2]): reduced the expression of ErbB2 protein

N.N.[Cl][Pt][Cl] [Cisplatin, cisplatin]
CI value (combination index) [5, 7]: No Effect | CI value (combination index) ([5]; 17-AAG Pre-Administration (17-AAG 24 h, then platinum complex 48 h), CI=1 additivity, CI>1 antagonism): No Effect | CI value (combination index) [6, 7]: Enhancement | CI value (combination index) ([6]; 17-AAG Pre-Administration (17-AAG 24 h, then platinum complex 48 h)): No Effect

COC1=C2C[C@@H](C)C[C@H](OC)[C@H](O)[C@@H](C)/C=C(\C)[C@H](OC(N)=O)[C@@H](OC)/C=C\C=C(/C)C(=O)NC(=CC1=O)C2=O [geldanamycin, Geldanamycin]
hepatotoxicity [3]: unacceptable hepatotoxicity
